Experimental data taken from patent US20130079349A1 (JANSSEN PHARMACEUTICA NV, priority 2010, published 2013).

How the values were obtained:
BACE1 = BACE1 (Homo sapiens, UniProt P56817); test: Biochemical FRET based assay; conditions: recombinant BACE1 1 μg/ml, 120 minutes at room temperature, pH 5.0; read-out: Biochemical FRET based assay pIC50 (converted)
Source text: This assay is a Fluorescence Resonance Energy Transfer Assay (FRET) based assay. The substrate for this assay is an APP derived 13 amino acids peptide that contains the ‘Swedish’ Lys-Met/Asn-Leu mutation of the amyloid precursor protein (APP) beta-secretase cleavage site. This substrate also contains two fluorophores: (7-methoxycoumarin-4-yl) acetic acid (Mca) is a fluorescent donor with excitation wavelength at 320 nm and emission at 405 nm and 2,4-Dinitrophenyl (Dnp) is a proprietary quencher acceptor. […] Upon cleavage by BACE1, the fluorophore Mca is separated from the quenching group Dnp, restoring the full fluorescence yield of the donor. The increase in fluorescence is linearly related to the rate of proteolysis.
Briefly in a 384-well format recombinant BACE1 protein in a final concentration of 1 μg/ml is incubated for 120 minutes at room temperature with 10 μm substrate in incubation buffer (40 mM Citrate buffer pH 5.0, 0.04% PEG, 4% DMSO) in the absence or presence of compound. Next the amount of proteolysis is directly measured by fluorescence measurement at T=0 and T=120 (excitation at 320 nm and emission at 405 nm). Results are expressed in RFU (relative fluorescence units), as difference between T120 and T0.

Abeta 1-42 = test: Cellular αLisa assay in SKNBE2 cells, Abeta 1-42; format: cell-based; conditions: human neuroblastoma SKNBE2 expressing hAPP695, incubated for 18 hours; for IC50: Homo sapiens, SKNBE2, 18 h, read-out: Cellular αlisa assay in SKNBE2 cells Aβ42 pIC50 (converted)
Method: (§1) In two αLisa assays the levels of Abeta total and Abeta 1-42 produced and secreted into the medium of human neuroblastoma SKNBE2 cells are quantified. The assay is based on the human neuroblastoma SKNBE2 expressing the wild type Amyloid Precursor Protein (hAPP695). The compounds are diluted and added to these cells, incubated for 18 hours and then measurements of Abeta 1-42 and Abeta total are taken. Abeta total and Abeta 1-42 are measured by sandwich αLisa. αLisa is a sandwich assay using biotinylated antibody AbN/25 attached to streptavidin coated beads and antibody Ab4G8 or cAb42/26 conjugated acceptor beads for the detection of Abeta total and Abeta 1-42 respectively. In the presence of Abeta total or Abeta 1-42, the beads come into close proximity. The excitation of the donor beads provokes the release of singlet oxygen molecules that trigger a cascade of energy transfer in the acceptor beads, resulting in light emission. Light emission is measured after 1 hour incubation (excitation at […] and emission at 615 nm).
(§2) A best-fit curve is fitted by a minimum sum of squares method to the plot of %Controlmin versus compound concentration.

Abeta total = test: Cellular αLisa assay in SKNBE2 cells, Abeta total; format: cell-based; conditions: human neuroblastoma SKNBE2 expressing hAPP695, incubated for 18 hours; for IC50: Homo sapiens, SKNBE2, 18 h, read-out: Cellular αlisa assay in SKNBE2 cells Aβtotal pIC50 (converted)
Method: as §1, §2

BACE1, sequence (P56817 46-501): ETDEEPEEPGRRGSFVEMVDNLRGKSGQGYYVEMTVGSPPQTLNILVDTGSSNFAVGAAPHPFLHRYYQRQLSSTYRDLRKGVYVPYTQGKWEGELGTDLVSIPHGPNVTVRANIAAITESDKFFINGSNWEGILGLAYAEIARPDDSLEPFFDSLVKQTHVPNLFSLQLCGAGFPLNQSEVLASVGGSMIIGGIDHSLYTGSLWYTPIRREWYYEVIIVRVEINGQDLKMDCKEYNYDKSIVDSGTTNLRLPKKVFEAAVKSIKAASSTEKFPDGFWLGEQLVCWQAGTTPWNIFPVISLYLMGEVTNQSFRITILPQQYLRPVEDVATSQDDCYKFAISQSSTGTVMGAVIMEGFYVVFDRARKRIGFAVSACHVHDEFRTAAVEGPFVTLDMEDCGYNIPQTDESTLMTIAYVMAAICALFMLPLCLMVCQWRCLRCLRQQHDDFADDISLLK

Structure (SMILES)	IC50 (BACE1) [µM]	IC50 (Abeta 1-42) [µM]	IC50 (Abeta total) [µM]	melting point [°C]	Cellular αlisa assay in SKNBE2 cells Aβ42 pIC50 (Abeta 1-42)	Cellular αlisa assay in SKNBE2 cells Aβtotal pIC50 (Abeta total)
CN1CC(N)=NC(C)(c2cccc(NC(=O)c3ccc(Cl)cn3)c2)C1=O (single isomer, unassigned) [Compound 4, (S*)-5-chloro-pyridine-2-carboxylic acid [3-(6-amino-2,4-dimethyl-3-oxo-2,3,4,5-tetrahydro-pyrazin-2-yl)-phenyl]-amide]					<5	<5
Cc1cnc(C(=O)Nc2cccc(C3(C)N=C(N)CN(C)C3=O)c2)cn1 (racemic) [Compound 6, rac-5-methyl-pyrazine-2-carboxylic acid [3-(6-amino-2,4-dimethyl-3-oxo-2,3,4,5-tetrahydro-pyrazin-2-yl)-phenyl]-amide]	7.08	1.26	1.15			
CCN1CC(N)=NC(C)(c2cc(-c3cncc(OC)c3)c(F)cc2F)C1=O (racemic) [Compound 9, rac-5-amino-3-[2,4-difluoro-5-(5-methoxy-pyridin-3-yl)-phenyl]-1-ethyl-3-methyl-3,6-dihydro-1H-pyrazin-2-one]	> 30.2	> 10	9.12	81.8		
COc1cncc(-c2cccc(C3(C)N=C(N)CN(C)C3=O)c2)c1 (racemic) [Compound 2, rac-5-amino-3-[3-(5-methoxy-pyridin-3-yl)-phenyl]-1,3-dimethyl-3,6-dihydro-1H-pyrazin-2-one]	10.5	1.66	1.51			
CN1CC(N)=NC(C)(c2cccc(NC(=O)c3ccc(Cl)cn3)c2)C1=O (racemic) [Compound 3, rac-5-chloro-pyridine-2-carboxylic acid [3-(6-amino-2,4-dimethyl-3-oxo-2,3,4,5-tetrahydro-pyrazin-2-yl)-phenyl]-amide]		0.0646	0.0275			

Other lines, results leading:

IC50 (BACE1) [µM]	IC50 (Abeta 1-42) [µM]	IC50 (Abeta total) [µM]	melting point [°C]	Cellular αlisa assay in SKNBE2 cells Aβ42 pIC50 (Abeta 1-42)	Cellular αlisa assay in SKNBE2 cells Aβtotal pIC50 (Abeta total)	Structure (SMILES)
20.4	4.47	3.89	223.4			CN1CC(N)=NC(C)(c2cccc(-c3cncnc3)c2)C1=O (racemic) [Compound 1, rac-5-amino-1,3-dimethyl-3-(3-pyrimidin-5-yl-phenyl)-3,6-dihydro-1H-pyrazin-2-one]
				7.44	7.43	CN1CC(N)=NC(C)(c2cccc(NC(=O)c3ccc(Cl)cn3)c2)C1=O (single isomer, unassigned) [Compound 5, (R*)-5-chloro-pyridine-2-carboxylic acid [3-(6-amino-2,4-dimethyl-3-oxo-2,3,4,5-tetrahydro-pyrazin-2-yl)-phenyl]-amide]
